{"source": "paper PMC11474028", "about": "“Lipopeptide antibiotics disrupt interactions of undecaprenyl phosphate with UptA” (Proceedings of the National Academy of Sciences of the …, 2024)", "biological_target": "UptA (Bacillus subtilis, UniProt O31823)", "sequence (O31823 whole entry)": "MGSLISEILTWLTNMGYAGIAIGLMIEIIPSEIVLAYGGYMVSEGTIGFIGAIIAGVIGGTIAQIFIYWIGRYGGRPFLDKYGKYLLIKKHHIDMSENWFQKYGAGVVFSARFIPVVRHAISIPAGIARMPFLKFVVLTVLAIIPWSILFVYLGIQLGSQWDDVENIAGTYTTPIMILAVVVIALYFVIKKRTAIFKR", "test": "Native MS of phospholipid binding to UptA", "conditions": "4 µM UptA with 10 µM lipid (stated for a15:0-i15:0 lipids); mean of three independent replicates", "from_the_text": "Proteins belonging to the DedA family are a widespread family of transporters and are proposed to flip diverse lipids, including carrier lipids and membrane phospholipids. We therefore probed the interaction of UptA with membrane phospholipids to understand whether the latter could modulate its function. For this purpose, we selected anionic phosphatidylglycerols (PG) and zwitterionic phosphatidylethanolamines (PE), representing the major classes of phospholipid headgroups found in B. subtilis ([41], [42]). We recorded mass spectra of solutions containing 4 µM UptA incubated with 10 µM a15:0-i15:0 PE and 10 µM a15:0-i15:0 PG (a15:0, anteiso-pentadecanoic acid; i15:0, iso-pentadecanoic acid). The fatty acid composition of these lipids closely mimics those of native B. subtilis lipids (see below). The resulting spectra display peaks corresponding to UptA in apo and lipid-bound forms in both cases (Fig. 4 A and B). […] We therefore hypothesize that UptA interacts more favorably with PG than with PE.\nTo verify the lipid binding preference of UptA with more native-like lipids, we prepared lipid extracts from B. subtilis membranes (Materials and Methods). We then incubate an aliquot of the resulting crude lipids (SI Appendix, Fig. S8) with UptA. The spectra yielded peaks assigned to UptA in complex with cardiolipins (~1,326 Da) and a range of phospholipids, predominantly 694 Da, 721 Da, 748 Da, and 776 Da species (Fig. 4 D and E). To identify these lipids, we performed tandem MS/MS, isolating the lipid species and subjecting it to collisional activation. […] The fatty acid fragments are mixed populations, predominantly 15:0-15:0, 15:0-17:0, 16:0-16:0, and 16:0-18:1 (SI Appendix, Fig. S9) which are the typical fatty acids from B. subtilis membrane phospholipids ([42]). We therefore conclude that UptA interacts more favorably with the anionic cardiolipins and phosphatidylglycerols than with the zwitterionic phosphatidylethanolamines in the membrane lipid extracts.\nDetailed experimental procedures are provided in SI Appendix. Briefly, UptA (wild type and mutants) was expressed in E. coli C43(DE3) cells (Lucigen) with GFP fusion on the C-terminus and solubilized from the membrane fraction by n-dodecyl-β-D-maltopyranoside (DDM). After purification by affinity chromatography, the GFP was cleaved by TEV protease and removed, and UptA was further purified by size-exclusion chromatography in a buffer containing 20 mM Tris-HCl (pH 8.0), 200 mM NaCl, 0.02% DDM. Before measurements, proteins were buffer-exchanged into 0.05% LDAO, 200 mM ammonium acetate at the desired pH using a centrifugal buffer exchange device (Micro Bio-Spin 6, Bio-Rad). Stock solutions of lipids were prepared from chloroform/methanol solution by evaporating aliquots of known volume in a SpeedVac. After drying, the lipid films were weighed and resuspended to a final concentration of 0.5 mM in 200 mM ammonium acetate and 0.05% LDAO by vertexing. Stock solutions of 0.5 mM amphomycin, aspartocin D, daptomycin, polymyxin B, polymyxin E, and bacitracin were made in the same buffer. All experiments were repeated three times from newly prepared stock solutions. Native mass spectrometry was performed on a Q-Exactive hybrid quadrupole-Orbitrap mass spectrometer (Thermo Fisher Scientific, Bremen, Germany), and lipid identification was performed on an Orbitrap Eclipse Tribrid mass spectrometer (Thermo). […]\nLipid extracts from B. Subtilis\nB. subtilis strain 168 (ATCC 23857) was cultivated in […] LB media at 37 °C until OD600 nm 1.2 under aurobic conditions. Cells were harvested by centrifugation at 4,000 g for 20 minutes and resuspended in 20 mM Tris-HCl (pH 8.0), 150 mM NaCl. Cells were lysed by 5-6 passes through a microfluidizer at 20,000 psi. The lysates were clarified by centrifugation at 4,000 g for 10 minutes, and the totoal membrane was pelleted at 120,000 g for 1 h. The membrane pellet was ressupended […]"}
{"smiles": "CC(C)=CCC/C(C)=C/CC/C(C)=C/CC/C(C)=C\\CC/C(C)=C\\CC/C(C)=C\\CC/C(C)=C\\CC/C(C)=C\\CC/C(C)=C\\CC/C(C)=C\\CC/C(C)=C\\COP(=O)(O)O", "note": "[C55-P, undecaprenyl phosphate]", "values": [{"measurement": "mean relative intensity of UptA in complex with phospholipid, comparison (in words)", "result": "more intensely than any of these diacylglycerol phospholipids"}]}
